We go through 13 molecules from ChEMBL document CHEMBL3407408, “Design and synthesis of a new class of cryptophycins based tubulin inhibitors” (Eur J Med Chem, 2015).

Assay [1] is described as follows: Cytotoxicity against human PC3 cells after 48 hrs by MTT assay. It counts as functional, cell-based. The note with it: PC-3, 48 h.
Assay [2] is described as follows: Cytotoxicity against human FR2 cells after 48 hrs by MTT assay. Type of assay: cell-based. The note with it: FR2, 48 h. On the technique in general: Tetrazolium dyes change colour on reduction, which living cells bring about.
In assay [3] the test system is HeLa. Put plainly: cells. To be noted: Homo sapiens, 48 h.
Description: Cytotoxicity against human HeLa cells after 48 hrs by MTT assay
Assay [4] has as its system A549. Put plainly: cells. To be noted: Homo sapiens, A549, 48 h.
Description: Cytotoxicity against human A549 cells after 48 hrs by MTT assay
In assay [5] the test system is A549. Put plainly: Induction of apoptosis in human A549 cells assessed as cellular blebs at 10 to 30 uM after 24 hrs by phase contrast microscopic analysis. It counts as functional, cell-based.
The subject of assay [6] is A549. Put plainly: Induction of apoptosis in human A549 cells assessed as […] at 10 to 30 uM after 24 hrs by phase contrast microscopic analysis. It counts as functional, cell-based.
Assay [7] relates to A549. The assay is described as follows: Induction of apoptosis in human A549 cells assessed as shrinkage of cell size at 10 to 30 uM after 24 hrs by phase contrast microscopic analysis. Type of assay: functional, cell-based.
Assay [8] deals with A549. Put plainly: Induction of apoptosis in human A549 cells assessed as formation of multiple apoptotic bodies at 10 to 30 uM after 24 hrs by Hoechst 33258 staining-based inverted fluorescence microscopic analysis. It counts as functional, cell-based.
Assay [9] deals with A549. The assay is described as follows: Cell cycle arrest in human A549 cells assessed as increase in hypo diploid sub-G0 DNA fraction after 24 hrs by propidium iodide staining-based flow cytometric analysis. Type of assay: functional. (A flow cytometer gives signals particle by particle.)
The subject of assay [10] is A549. Put plainly: Cell cycle arrest in human A549 cells assessed as accumulation at sub-G0 phase at 10 uM after 24 hrs by propidium iodide staining-based flow cytometric analysis (reference value: 5%). It counts as functional.
The subject of assay [11] is A549. Put plainly: Cell cycle arrest in human A549 cells assessed as accumulation at G1 phase at 10 uM after 24 hrs by propidium iodide staining-based flow cytometric analysis (reference value: 69%). It counts as functional.
Assay [12] relates to A549. The assay is described as follows: Cell cycle arrest in human A549 cells assessed as accumulation at S phase at 10 uM after 24 hrs by propidium iodide staining-based flow cytometric analysis (reference value: 26%). It counts as functional.
Assay [13] concerns A549. Put plainly: Cell cycle arrest in human A549 cells assessed as accumulation at G2/M phase at 10 uM after 24 hrs by propidium iodide staining-based flow cytometric analysis (reference value: 5%). It counts as functional.
Assay [14] has as its system A549. Put plainly: Cell cycle arrest in human A549 cells assessed as accumulation at sub-G0 phase at 30 uM after 24 hrs by propidium iodide staining-based flow cytometric analysis (reference value: 5%). It counts as functional.
The subject of assay [15] is A549. The assay is described as follows: Cell cycle arrest in human A549 cells assessed as accumulation at G1 phase at 30 uM after 24 hrs by propidium iodide staining-based flow cytometric analysis (reference value: 69%). Type of assay: functional.
Assay [16] relates to A549. Put plainly: Cell cycle arrest in human A549 cells assessed as accumulation at S phase at 30 uM after 24 hrs by propidium iodide staining-based flow cytometric analysis (reference value: 26%). It counts as functional.
Assay [17] deals with A549. The assay is described as follows: Cell cycle arrest in human A549 cells assessed as accumulation at G2/M phase at 30 uM after 24 hrs by propidium iodide staining-based flow cytometric analysis (reference value: 5%). Type of assay: functional.
Assay [18] concerns A549. The assay is described as follows: Downregulation of alpha-tubulin protein expression in human A549 cells at 10 to 30 uM after 24 hrs by Western blot analysis. Type of assay: functional, cell-based.
The subject of assay [19] is A549. Put plainly: Downregulation of beta-tubulin protein expression in human A549 cells at 10 to 30 uM after 24 hrs by Western blot analysis. It counts as functional, cell-based.
In assay [20] the test system is A549. Put plainly: Cell cycle arrest in human A549 cells assessed as accumulation at G2/M phase at 1 uM by propidium iodide staining-based flow cytometric analysis (reference value: 5%). It counts as functional.

Activity calls are given as the source filed them. The calls are words filed in the database; no cut-off is given here.

The IC50 is the concentration that gives 50% inhibition. For `COc1ccc(C[C@@H]2NC(=O)/C=C/C[C@@H](c3ccccc3[N+](=O)[O-])OC(=O)[C@H](CC(C)C)OC(=O)CCNC2=O)cc1`, the IC50 in [1] came to 100 µM; in [2] it was 90 µM; in assay [3] it was 47 µM; in assay [4], 13 µM.

In the case of `COc1ccc(C[C@@H]2NC(=O)/C=C/C[C@@H](c3c(F)c(F)c(F)c(F)c3F)OC(=O)[C@H](CC(C)C)OC(=O)CCNC2=O)cc1`, the IC50 in [1] is 100 µM; in [2], 79 µM; in assay [3], 100 µM; in assay [4], above 100 µM.

For the molecule `COc1ccc(C[C@H]2NC(=O)/C=C/C[C@@H](c3ccccc3[N+](=O)[O-])OC(=O)[C@H](CC(C)C)OC(=O)CCNC2=O)cc1`, the IC50 is 67 µM in assay [1], above 100 µM in assay [2], 29 µM in assay [3] and 15 µM in [4].

Turning to `COc1ccc(C[C@H]2NC(=O)/C=C/C[C@@H](c3c(F)c(F)c(F)c(F)c3F)OC(=O)[C@H](CC(C)C)OC(=O)CCNC2=O)cc1`, the IC50 in assay [1] is 70 µM; in assay [2], above 100 µM; in [3], 78 µM; in [4], 30 µM.

`COc1ccc(C[C@H]2NC(=O)/C=C/C[C@@H](c3cccc([N+](=O)[O-])c3)OC(=O)[C@H](CC(C)C)OC(=O)CCNC2=O)cc1`: the IC50 in assay [1], in [2], in [3] and in assay [4] was above 100 µM throughout.

`COc1ccc(C[C@@H]2NC(=O)/C=C/C[C@@H](c3cccc([N+](=O)[O-])c3)OC(=O)[C@H](CC(C)C)OC(=O)CCNC2=O)cc1`: the IC50 in [1] stood at 100 µM; in assay [2] it was 93 µM; in [3] it was 35 µM; in assay [4], 90 µM.

In the case of `COc1ccc(C[C@@H]2NC(=O)/C=C/C[C@@H](c3ccc([N+](=O)[O-])cc3)OC(=O)[C@H](CC(C)C)OC(=O)CCNC2=O)cc1`, the IC50 stood at 70 µM in assay [1], 78 µM in assay [2], 40 µM in assay [3] and 11 µM in assay [4]. The result in [5], in assay [6], in [7], in [8], in [18] and in assay [19] was Active. In addition, the Activity result in [9] was “Dose-dependent effect”; in [10], 19%; in assay [11], 65%; in assay [12] it was 25%; in assay [13], 10%; in assay [14] it was 49%. Besides, the results for the Activity in assay [15], in assay [16] and in assay [17] were 80%, 1% and 19%, respectively.

`COc1ccc(C[C@@H]2NC(=O)/C=C/C[C@@H](c3ccc(Cl)cc3Cl)OC(=O)[C@H](CC(C)C)OC(=O)CCNC2=O)cc1`: the IC50 in assay [1] is 32 µM; in assay [2], above 100 µM; in assay [3] it was 33 µM; in [4], 45 µM.

Regarding `CC(=O)O[C@H]1C(=O)[C@@]2(C)[C@H]([C@H](OC(=O)c3ccccc3)[C@]3(O)C[C@H](OC(=O)[C@H](O)[C@@H](NC(=O)c4ccccc4)c4ccccc4)C(C)=C1C3(C)C)[C@]1(OC(C)=O)CO[C@@H]1C[C@@H]2O` [PACLITAXEL], the IC50 in assay [1] was 0.012 µM; in assay [2] it was 16 µM; in [4] it was 0.025 µM. Besides, in [20], the Activity stood at 45%.

For the molecule `COc1ccc(C[C@H]2NC(=O)/C=C/C[C@@H](c3ccc([N+](=O)[O-])cc3)OC(=O)[C@H](CC(C)C)OC(=O)CCNC2=O)cc1`, the IC50 in assay [1] came to 15 µM; in assay [2], 97 µM; in [3] it was 28 µM; in assay [4], 10 µM. The result in assay [5], in assay [6], in [7], in [8], in [18] and in [19] was Active. Also, the Activity result is “Dose-dependent effect” in [9]; 11% in assay [10]; 59% in assay [11]; 35% in [12]; 6% in [13]; 26% in [14]. In addition, the Activity came to 62% in [15], 30% in [16] and 8% in [17].

Take `COc1ccc(C[C@H]2NC(=O)/C=C/C[C@@H](c3ccc(Cl)cc3Cl)OC(=O)[C@H](CC(C)C)OC(=O)CCNC2=O)cc1`: the IC50 was 100 µM in assay [1], above 100 µM in assay [2], 90 µM in assay [3] and 100 µM in assay [4].

Regarding `COc1ccc(C[C@H]2NC(=O)/C=C/C[C@@H](c3ccc(Br)cc3)OC(=O)[C@H](CC(C)C)OC(=O)CCNC2=O)cc1`, the IC50 in assay [1] amounted to 60 µM; in assay [2] it was 87 µM; in assay [3], 55 µM; in [4], 60 µM.

Turning to `COc1ccc(C[C@@H]2NC(=O)/C=C/C[C@@H](c3ccc(Br)cc3)OC(=O)[C@H](CC(C)C)OC(=O)CCNC2=O)cc1`, the IC50 in assay [1] is 68 µM; in assay [2] it was above 100 µM; in assay [3], 60 µM; in assay [4], 56 µM.
